Values of other authors, collected in US11318148B2, “Preservative-free treprostinil devices” (SteadyMed, Ltd., priority 2014, dated 2022).

Tests used:
[1] = in vivo
[2] = has to be kept on ice during administration

half-life [1]: 3 to 5 min
stability at room temperature [2]: unstable at room temperature
SMILES: CCCCC[C@H](O)/C=C/[C@@H]1[C@H]2C/C(=C/CCCC(=O)O)O[C@H]2C[C@H]1O [Flolan]
